Marks after values point to notes of the source that are not given here.
How the values were obtained:
[1] = system: IVM porcine oocytes; test: Parthenogenetic activation of IVM porcine oocytes, development to blastocyst; assay type: cell-based; conditions: 5 μM ionomycin 5 min in mTALP-PVA, 6-DMAP +
Experimental: The preparation of in vitro matured (IVM) oocytes was essentially as described previously (Grupen et al, (1997) Reproduction Fertility Development 9:571-575). Ovaries from slaughtered prepubertal gilts were transported to the laboratory in Dulbecco's PBS supplemented with 0.6% (v/v) of an antibiotic solution (CSL Ltd) containing penicillin (10,000 U mL^−1), streptomycin (10,000 μg mL^−1) and fungizone (25 μg mL^−1) and maintained at 38° C. Antral follicles ([…] in diameter) were aspirated using a 21-gauge needle through which constant suction (1 L min^−1) was applied. The follicular contents were pooled in a collection tube. Cumulus-oocyte complexes (COCs) with at least three uniform layers of compact cumulus cells were recovered from the collected fluid, washed three times in OMM199a, transferred to 50 μl droplets (25 COCs per droplet) of OMM199a covered with mineral oil in a petrie dish (Becton Dickinson and Company, Plymouth, England) and incubated at 38.5° C. in a humidified atmosphere of 5% CO2 in air. After twenty two hours of maturation, expanded COCs were washed once in OMM199 without dibutyryl cAMP (OMM199b), transferred to 50 μl droplets of OMM199b and incubated for a further twenty four hours. At the end of the forty six hours maturation interval, the oocytes were treated with 0.5 mg mL^−1 hyaluronidase for one minute and then gently aspirated with a small bore glass pipette to remove the cumulus cells. Oocytes that had extruded a polar body were washed and kept in culture medium prior to activation.
The experiments hereafter were conducted with oocytes rather than nuclear transfer embryos. These experiments are termed parthenogenetic, since they are done without fertilized embryos. Parthenogenetic experiments are used routinely as a model system to investigate NT, largely because of the expense and additional experimental manipulation involved with NT embryos. Parthenogenetic experiments provide very useful information for the development of NT technology, and are directly predictive of NT outcomes.
Oocytes were activated forty six to forty eight hours after the start of maturation. Denuded oocytes that had extruded a polar body were washed and kept in modified TALP-PVA medium supplemented with 3.0 mM Ca-lactate (mTALP-PVA) for approximately one hour prior to activation. Oocytes were transferred to mTALP-PVA containing 5 μM ionomycin for five minutes. Oocytes were then washed twice and incubated in culture medium containing 2 mM 6-DMAP for three hours. The 6-DMAP treated oocytes were then washed twice and transferred to 50 μl droplets of the culture medium under mineral oil. In the ionomycin * treatment oocytes were not washed in media containing 6-DMAP.

[2] = system: porcine oocytes; conditions: ionomycin increased from 5 μM to 15 μM, low calcium levels; cited from earlier work

## C[C@H](CCC(=O)O)C[C@H](C)C[C@H](C)C(=O)/C=C(\O)[C@H](C)C[C@H](C)C/C=C/[C@@H](C)[C@@H](O)[C@@H](C)[C@@H](O)C[C@@H]1CC[C@@](C)([C@H]2CC[C@@](C)([C@@H](C)O)O2)O1 [Ionomycin, ionomycin]
[1]
  Percentage developing to blastocyst, Day 6: 49^c %
  Percentage developing to blastocyst, Day 7: 51^c %
[1]; listed as Ionomycin*
  Percentage developing to blastocyst, Day 6: 1^d %
  Percentage developing to blastocyst, Day 7: 1^d %
[2]
  oocytes developing parthenogenetically to blastocyst stage: 23%

— patent US20040154048A1, “Activation of nuclear transfer embryos” (priority 2001, published 2004)
